Reference: patent US6900315B2, “2-amino-9H-purin-9-yl compounds and methods for inhibiting/treating HIV infections and AIDS related symptoms” (Yale University, priority 2001, dated 2005)
Like-named read-outs stand apart in the source and are kept apart here.

Key:
HIV [1] = conditions: pairs: D4T and AZT, 3TC and ddC, FD4C and 3TC, abacavir and cyclo D4G; Bridges et al., Dutschman et al.; cited from earlier work
KB = test: Toxicity, dye based cell growth assay, KB; conditions: Homo sapiens, 120 h
Description: (§1) To determine the toxicity of the compounds to various cell lines (Table 1, below), a similar dye based assay is performed in the absence of HIV. The toxicity of the compounds alone therefore was determined.

MT-2 = test: Toxicity, dye based cell growth assay in absence of HIV, MT-2; conditions: Homo sapiens, MT2, 120 h, read-out: IC50 (inhibited 50% of the cell growth)
Description: as §1

CEM = test: Toxicity, dye based cell growth assay, CEM; conditions: Homo sapiens, CCRF-CEM, 120 h, read-out: IC50 (inhibited 50% of the cell growth)
Description: as §1

HeLa = test: Toxicity, dye based cell growth assay, HeLa; conditions: Homo sapiens, 120 h
Description: as §1

HIV IIIB = test: Anti-HIV activity in MT-2 cells infected with HIV IIIB, MTT dye cell viability; format: cell-based; conditions: read-out: EC50 (concentration necessary to save 50% of the cells)
Description: To assess the ability of the compounds according to the present invention to inhibit viral infection relative to other compounds experiments were performed in the MT-2 cell line, as previously described by Larder, et al., Antimicrobial Agents & Chemotherapy, vol. 34, 436 (1990). […] Cells were infected at an initial multiplicity of infection (MOI) of 0.1 and grown for 5 days. Cell viability was assessed by the use of dye metabolized by viable cells.

HEP-G2 = test: Toxicity, dye based cell growth assay, HEP-G2; conditions: Homo sapiens, HepG2, 120 h, read-out: IC50 (inhibited 50% of the cell growth)
Description: as §1

[2] = system: mitochondrial DNA in CEM cells; test: Mitochondrial toxicity: ratio of mitochondrial DNA to Alu repeat in CEM cells; format: cell-based; conditions: 8 days
Description: After 8 days of growth the cells were lysed and probed for the amount of mitochondrial DNA and normalized for differences in the amount of total DNA by probing for the Alu repeat. By comparing the amount of mitochondrial DNA to the amount of Alu repeat the % decrease in mitochondrial DNA in the presence of various concentrations of drug can be obtained. All experiments were done in triplicate. Techniques which are presented here have been previously described in Chen and Cheng, J. Biol. Chem., vol. 264, 11934-7 (1989).

HIV [3] = test: Anti-HIV drug combination (synergy, isobologram of FEC50) in cell culture; format: cell-based
Description: Points on this line represent the compounds working independently.
In an attempt to understand how D4G prodrugs of the present invention would interact with other clinically approved compounds, experiments were performed with drug combinations. […] Points on the line represent two compounds working independently. […] See, Bridges, et al., Biochem. Pharmacol., 51, 731 (1996) and Dutschman, et al., Antimicro. Agents Chemother. 42, 1799 (1998).

[4] = read-out: IC50 (inhibited 50% of the cell growth), oral carcinoma, 5 days
[5] = MT-2, HTLV infected T cell line, 5 days
[6] = read-out: IC50 (inhibited 50% of the cell growth), cervical cancer cell line, 5 days
[7] = Human immunodeficiency virus 1, MT2, 120 h, MT-2 cells, HIV IIIB, MOI 0.1, 5 days, MTT, NA = No Activity at concentrations up to 100 uM, EC50 not achievable due to toxicity
[8] = HEP-G2, hepatoma cell line, 5 days
[9] = read-out: IC50 (inhibited 50% of the cell growth)
[10] = Human immunodeficiency virus 1, IIIB, MT2, 120 h

| SMILES | anti-HIV interaction of two analogs of the same base (HIV [1]) | IC50 (KB; [4]) [µM] | IC50 (MT-2; [5]) [µM] | IC50 (CEM; CEM, T cell line, 5 days) [µM] | IC50 (HeLa; [6]) [µM] | EC50 (HIV IIIB; [7]) [µM] | IC50 (HEP-G2; [8]) [µM] | EC50 (HIV IIIB; [10]) [µM] | % Control (mtDNA/Alu) ([2]; human, 1 μM) [%] | Ration of mtDNA/Alu ([2]; human, 1 μM) | also measured |
| --- | --- | --- | --- | --- | --- | --- | --- | --- | --- | --- | --- |
| Nc1nc(=O)n([C@@H]2C=C[C@H](CO)O2)cc1F [FD4C] | not synergistic |  |  |  |  |  |  |  |  |  |  |
| OC[C@@H]1CC[C@H](n2cnc3c(O)ncnc32)O1 [DdI, 2′,3′ dideoxyinosine] |  | > 500 | > 100 | > 500 | 500 ± 33 | 20 ± 6 | > 500 |  |  |  |  |
| Cc1cn([C@H]2C=C[C@@H](CO)O2)c(=O)[nH]c1=O [d4T, 2′,3′-didehydro-2′,3′-dideoxythymidine] | not synergistic |  |  |  |  |  |  | 3 ± 0.7 |  |  | IC50 (KB; [9]): 450 ± 47 µM; IC50 (MT-2): > 100 µM; IC50 (CEM): 190 ± 30 µM; IC50 (HeLa; [9]): 480 ± 31 µM; % Control (mtDNA/Alu) ([2]; compound 1 μM, CEM cells): 110%; Ration of mtDNA/Alu ([2]; compound 1 μM, CEM cells): 1.18 ± 0.03; % Control (mtDNA/Alu) ([2]; compound 10 μM, CEM cells): 94%; Ration of mtDNA/Alu ([2]; compound 10 μM, CEM cells): 1.00 ± 0.02; % Control (mtDNA/Alu) ([2]; compound 200 μM, CEM cells): 21%; Ration of mtDNA/Alu ([2]; compound 200 μM, CEM cells): 0.22 ± 0.03; anti-HIV interaction in combination with AZT (HIV [3]; FIG. 4, D4T with AZT data not shown): only additive; IC50 (HEP-G2): 390 ± 26 µM |
| Nc1nc(NC2CC2)c2ncn([C@H]3C=C[C@@H](CO)C3)c2n1 [Abacavir] | not synergistic | 200 ± 21 | 60 ± 13 | 200 ± 50 | 500 ± 33 |  | 180 ± 12 | 2 ± 0.4 | 110 | 1.18 ± 0.03 | % Control (mtDNA/Alu) ([2]; human, 10 μM): 119%; Ration of mtDNA/Alu ([2]; human, 10 μM): 1.27 ± 0.06; % Control (mtDNA/Alu) ([2]; human, 200 μM): 127%; Ration of mtDNA/Alu ([2]; human, 200 μM): 1.36 ± 0.06; anti-HIV interaction in combination with 3TC (HIV [3]; FIG. 3 and FIG. 4): merely additive |
| Nc1ccn([C@H]2CC[C@@H](CO)O2)c(=O)n1 [DdC, 2′,3′ dideoxycytodine] |  | 100 ± 11 | 2 ± 0.3 | 3 ± 1 | > 100 | 0.3 ± 0.05 | 25 ± 2 |  | 3 | 0.03 ± 0.01 | % Control (mtDNA/Alu) ([2]; human, 0.01 μM): 87%; Ration of mtDNA/Alu ([2]; human, 0.01 μM): 0.93 ± 0.06; % Control (mtDNA/Alu) ([2]; human, 0.1 μM): 65%; Ration of mtDNA/Alu ([2]; human, 0.1 μM): 0.70 ± 0.04 |
